Data published in patent US20220242870A1, “HETEROCYCLE-FUSED PYRIMIDINE DERIVATIVE AND USE THEREOF” (VORONOI Inc., priority 2019, published 2022).

Assays:
MV4-11 cells = test: AML cell proliferation inhibitory activity (CellTiter-Glo); format: cell-based; settings: Homo sapiens, 72 hours
Procedure: (§1) The inhibitory activities of the example compounds according to the present invention on the proliferation of acute myeloid leukemia (AML) cells expressing the FLT3 mutant gene were evaluated. Specifically, RS4;11 and MV4-11 cells as acute myeloid leukemia cells expressing the FLT3 mutant gene were cultured in RPMI-1640 (Invitrogen) adding 10% FBS. The cells were seeded into each well of a clear bottom white 96-well plate (Corning) at 3000 to 5000 cells 24 hours before compound treatment. The compound was diluted in DMSO (diluted each three-fold, to a total of 12 concentrations) and injected at 0.5 μL each so as to be a final concentration of 0.3 nM to 50 μM. After 72 hours of the compound treatment, they were treated with CellTiter-Glo Luminescent Cell Viability assay (Promega) and stored at room temperature for 10 minutes, and luminescence intensities were measured with a reader (SynergyNeo, Biotek) to count viable cells. Each experiment was performed three times repeatedly. The result values were calculated as the cell growth rate (%) compared to the control treated with the solvent. The graph was derived using the GraphPad Prism program (version 5.0), the GI50 (nM) values were calculated, and the results were shown in Table 3 below.

RS4;11 cells = test: as above; format: cell-based; settings: Homo sapiens, 72 hours
Procedure: as §1

human FLT3-ITD enzyme = target: T1, human FLT3-ITD enzyme (Homo sapiens, UniProt P36888); test: FLT3 enzyme inhibitory ability (ADP-Glo kinase assay); format: biochemical; settings: human FLT3-ITD enzyme 10 ng, ATP 10 μM, 25° C. 1 hour
T1 sequence (P36888 1-993): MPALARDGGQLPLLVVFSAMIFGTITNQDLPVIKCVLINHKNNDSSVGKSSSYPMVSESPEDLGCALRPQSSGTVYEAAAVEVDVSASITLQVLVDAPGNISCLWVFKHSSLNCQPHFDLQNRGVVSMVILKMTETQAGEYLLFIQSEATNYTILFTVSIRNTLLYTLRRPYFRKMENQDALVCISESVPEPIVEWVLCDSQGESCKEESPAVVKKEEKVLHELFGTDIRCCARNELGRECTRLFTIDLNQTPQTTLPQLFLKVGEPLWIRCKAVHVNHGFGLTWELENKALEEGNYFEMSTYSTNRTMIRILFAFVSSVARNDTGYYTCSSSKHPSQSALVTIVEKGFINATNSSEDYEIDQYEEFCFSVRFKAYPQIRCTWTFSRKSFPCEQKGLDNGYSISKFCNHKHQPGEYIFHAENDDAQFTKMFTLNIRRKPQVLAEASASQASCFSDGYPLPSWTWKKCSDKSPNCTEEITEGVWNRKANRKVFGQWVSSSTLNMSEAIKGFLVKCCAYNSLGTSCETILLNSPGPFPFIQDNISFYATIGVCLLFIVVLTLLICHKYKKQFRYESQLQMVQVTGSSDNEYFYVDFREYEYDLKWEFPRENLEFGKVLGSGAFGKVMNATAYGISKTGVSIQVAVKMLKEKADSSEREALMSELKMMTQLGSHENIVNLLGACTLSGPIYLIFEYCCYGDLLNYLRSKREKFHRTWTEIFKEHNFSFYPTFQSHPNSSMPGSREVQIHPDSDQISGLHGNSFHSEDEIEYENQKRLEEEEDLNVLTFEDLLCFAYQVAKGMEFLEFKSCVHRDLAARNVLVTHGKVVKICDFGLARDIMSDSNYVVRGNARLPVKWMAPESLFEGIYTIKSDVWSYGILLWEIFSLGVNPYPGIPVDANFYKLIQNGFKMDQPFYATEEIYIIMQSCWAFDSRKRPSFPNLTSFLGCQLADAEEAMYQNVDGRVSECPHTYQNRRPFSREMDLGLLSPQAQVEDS
Outline: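 Purified human FLT3-ITD (10 ng) with 10 μM ATP and specific substrate in 40 mM Tris-HCl pH 7.4, 20 mM MgCl2, 0.5 mg/mL BSA, 50 μM DTT, 1 h at 25 °C. ADP formation read by ADP-Glo luminescence; IC50 (nM) versus solvent-treated control.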

human GST-HPK1 (1-346) = target: T2, human GST-HPK1 (1-346) (Homo sapiens, UniProt Q92918); test: HPK1 enzyme inhibitory ability (ADP-Glo kinase assay); format: biochemical; settings: human GST-HPK1 3 ng, ATP 3 uM, 25° C. 2 hours
T2 construct: purified human GST-HPK1 (1-346, Signalchem) enzyme; purchased Signalchem
T2 sequence (Q92918 1-346): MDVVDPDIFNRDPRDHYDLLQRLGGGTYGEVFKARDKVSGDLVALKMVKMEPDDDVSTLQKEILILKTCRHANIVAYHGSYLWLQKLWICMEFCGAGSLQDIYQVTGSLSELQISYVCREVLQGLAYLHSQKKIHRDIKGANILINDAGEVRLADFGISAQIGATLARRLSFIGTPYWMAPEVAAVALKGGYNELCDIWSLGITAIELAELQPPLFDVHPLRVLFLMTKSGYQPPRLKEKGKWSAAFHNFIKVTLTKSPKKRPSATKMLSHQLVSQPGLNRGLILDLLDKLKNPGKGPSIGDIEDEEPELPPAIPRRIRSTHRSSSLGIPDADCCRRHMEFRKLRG
Outline: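 Human GST-HPK1(1-346), 3 ng, reacted with 3 uM ATP and specific substrate in 40 mM Tris-HCl pH 7.4, 20 mM MgCl2, 0.5 mg/mL BSA, 50 uM DTT for 2 h at 25° C. ADP-Glo luminescence read; IC50 (nM) relative to untreated solvent control.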

MCF-7 cells = test: Breast cancer cell line proliferation inhibitory activity (CellTiter-Glo 2.0); format: cell-based; settings: Homo sapiens, MCF7, 120 hours
Outline: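 MCF-7 cells exposed to a 12-point, 3-fold dilution series (final 0.00005–10 μM) for 120 h at 37 °C. Viability read by CellTiter-Glo 2.0 luminescence, expressed as percent of vehicle-treated cells. GI50 (nM) derived from the curves.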

| GI50 (MV4-11 cells) [nM] | GI50 (RS4;11 cells) [nM] | IC50 (human FLT3-ITD enzyme) [nM] | IC50 (human GST-HPK1 (1-346)) [nM] | GI50 (MCF-7 cells) [nM] | SMILES |
| --- | --- | --- | --- | --- | --- |
| ≥ 250 | > 500 | 250 to 500 |  |  | CN(C)CCN(C)c1ccc(Nc2nc(N3N=CCC3c3ccccc3)c3sccc3n2)cc1 (centres unmarked) [Example 2, N-(2-(dimethylamino)ethyl)-N-methyl-N-(4-(5-phenyl-4,5-dihydro-1H-pyrazol-1-yl)thieno[3,2-d]pyrimidin-2-yl)benzene-1,4-diamine] |
| > 500 | > 500 | > 500 | > 500 | > 500 | CN1CCN(c2ccc(Nc3nc(N4N=CCC4c4ccccc4)c4sccc4n3)cn2)CC1 (centres unmarked) [Example 5, N-(6-(4-methylpiperazin-1-yl)pyridin-3-yl)-4-(5-phenyl-4,5-dihydro-1H-pyrazol-1-yl)thieno[3,2-d]pyrimidin-2-amine] |
| > 500 | > 500 | > 500 |  |  | C1=NN(c2nc(Nc3ccc(N4CCC(N5CCOCC5)CC4)cc3)nc3ccsc23)C(c2ccccc2)C1 (centres unmarked) [Example 9, N-(4-(4-morpholinopiperidin-1-yl)phenyl)-4-(5-phenyl-4,5-dihydro-1H-pyrazol-1-yl)thieno[3,2-d]pyrimidin-2-amine] |
| 250 to 500 | > 500 | ≥ 250 |  |  | CN1CCN(C(=O)Nc2ccc(Nc3nc(N4N=CCC4c4ccccc4)c4sccc4n3)cc2)CC1 (centres unmarked) [Example 20, 4-methyl-N-(4-((4-(5-phenyl-4,5-dihydro-1H-pyrazol-1-yl)thieno[3,2-d]pyrimidin-2-yl)amino)phenyl)piperazine-1-carboxamide] |
| > 500 | > 500 | > 500 |  |  | CN1CCN(c2ccc(Nc3nc(N4N=CCC4c4cc5ccccc5cn4)c4sccc4n3)cc2)CC1 (centres unmarked) [Example 32, 4-(5-(isoquinolin-3-yl)-4,5-dihydro-1H-pyrazol-1-yl)-N-(4-(4-methylpiperazin-1-yl)phenyl)thieno[3,2-d]pyrimidin-2-amine] |
| > 500 | > 500 | > 500 |  |  | CN1CCN(c2ccc(Nc3nc(N4N=CCC4c4ccccn4)c4sccc4n3)cc2)CC1 (centres unmarked) [Example 33, N-(4-(4-methylpiperazin-1-yl)phenyl)-4-(5-(pyridin-2-yl)-4,5-dihydro-1H-pyrazol-1-yl)thieno[3,2-d]pyrimidin-2-amine] |
| ≥ 250 | > 500 | > 500 | > 500 |  | CN1CCN(c2ccc(Nc3nc(N4N=CCC4c4cccc(F)c4)c4sccc4n3)cc2)CC1 (centres unmarked) [Example 36, 4-(5-(3-fluorophenyl)-4,5-dihydro-1H-pyrazol-1-yl)-N-(4-(4-methylpiperazin-1-yl)phenyl)thieno[3,2-d]pyrimidin-2-amine] |
| ≥ 250 | > 500 | ≥ 250 |  |  | CCN1CCN(c2ccc(Nc3nc(N4N=CCC4c4ccccc4)c4sccc4n3)cc2)CC1 (centres unmarked) [Example 39, N-(4-(4-ethylpiperazin-1-yl)phenyl)-4-(5-phenyl-4,5-dihydro-1H-pyrazol-1-yl)thieno[3,2-d]pyrimidin-2-amine] |
| ≥ 250 | > 500 | 250 to 500 |  |  | COc1cc(Nc2nc(N3N=CCC3c3ccccc3)c3sccc3n2)ccc1N1CCN(C)CC1 (centres unmarked) [Example 40, N-(3-methoxy-4-(4-methylpiperazin-1-yl)phenyl)-4-(5-phenyl-4,5-dihydro-1H-pyrazol-1-yl)thieno[3,2-d]pyrimidin-2-amine] |
| ≥ 250 | > 500 | ≥ 250 |  |  | CCN1CCN(c2ccc(Nc3nc(N4N=CCC4c4ccccc4)c4sccc4n3)c(OC)c2)CC1 (centres unmarked) [Example 41, N-(4-(4-ethylpiperazin-1-yl)-2-methoxyphenyl)-4-(5-phenyl-4,5-dihydro-1H-pyrazol-1-yl)thieno[3,2-d]pyrimidin-2-amine] |
| 250 to 500 | > 500 | > 500 |  |  | CCN(CC)CCOc1c(C)cc(Nc2nc(N3N=CCC3c3ccccc3)c3sccc3n2)cc1C (centres unmarked) [Example 46, N-(4-(2-(diethylamino)ethoxy)-3,5-dimethylphenyl)-4-(5-phenyl-4,5-dihydro-1H-pyrazol-1-yl)thieno[3,2-d]pyrimidin-2-amine] |
| ≥ 250 | > 500 | > 500 |  |  | COc1cc(Nc2nc(N3N=CCC3c3ccccc3)c3sccc3n2)cc(OC)c1OC (centres unmarked) [Example 51, 4-(5-phenyl-4,5-dihydro-1H-pyrazol-1-yl)-N-(3,4,5-trimethoxyphenyl)thieno[3,2-d]pyrimidin-2-amine] |
| > 500 |  | ≥ 250 | ≥ 250 | 250 to 500 | c1ccc([C@@H]2CCON2c2nc(Nc3ccc4c(c3)CCNC4)nc3[nH]ccc23)cc1 [Example 110, (S)-N-(4-(3-phenylisoxazolidin-2-yl)-7H-pyrrolo[2,3-d]pyrimidin-2-yl)-1,2,3,4-tetrahydroisoquinolin-6-amine] |
| ≥ 250 |  | 250 to 500 | ≥ 250 | > 500 | CC(C)(O)CN1CCc2cc(Nc3nc(N4OCC[C@H]4c4ccccc4)c4cc[nH]c4n3)ccc2C1 [Example 111, (S)-2-methyl-1-(6-((4-(3-phenylisoxazolidin-2-yl)-7H-pyrrolo[2,3-d]pyrimidin-2-yl)amino)-3,4-dihydroisoquinolin-2(1H)-yl)propan-2-ol] |
| > 500 |  | ≥ 250 | ≥ 250 | ≥ 250 | Clc1c[nH]c2nc(Nc3ccc4c(c3)CCNC4)nc(N3OCC[C@H]3c3ccccc3)c12 [Example 117, (S)-N-(5-chloro-4-(3-phenylisoxazolidin-2-yl)-7H-pyrrolo[2,3-d]pyrimidin-2-yl)-1,2,3,4-tetrahydroisoquinolin-6-amine] |
| ≥ 250 |  | ≥ 250 | ≥ 250 | > 500 | CN1CCN(C2CCN(c3ccc(Nc4nc(N5OCC[C@H]5c5ccccc5)c5c(C#N)c[nH]c5n4)cc3)CC2)CC1 [Example 119, (S)-2-((4-(4-(4-methylpiperazin-1-yl)piperidin-1-yl)phenyl)amino)-4-(3-phenylisoxazolidin-2-yl)-7H-pyrrolo[2,3-d]pyrimidine-5-carbonitrile] |
| ≥ 250 |  | ≥ 250 | ≥ 250 | ≥ 250 | N#Cc1c[nH]c2nc(Nc3ccc4c(c3)CCNC4)nc(N3OCC[C@H]3c3ccccc3)c12 [Example 120, (S)-4-(3-phenylisoxazolidin-2-yl)-2-((1,2,3,4-tetrahydroisoquinolin-6-yl)amino)-7H-pyrrolo[2,3-d]pyrimidine-5-carbonitrile] |
